Source: patent publication US20030157553A1, “Methods of assaying for G protein-coupled receptor ligands and modulators” (priority 2000, published 2003)

Experiments:
[1] = tested on: β2AR; experiment: Direct binding assay of in vitro translated tritiated arrestins to purified β2AR reconstituted into phospholipid vesicles; settings: activated by 0.1 mM agonist isoproterenol, FIG. 1A; for binding to activated unphosphorylated receptor: unphosphorylated β2AR
Source text: Mutagenesis and Biochemical Characterization of β-Arrestins—Mutations Arg169→Glu (CGG→GAG), Gln394→Ter (CAA→TAA), and Asp383→Ter (GAT→TAG) were introduced by polymerase chain reaction in β-arrestin construct pBARR (Gurevich et al. (1995) J. Biol. Chem. 270:720-731), that was used for in vitro transcription and translation, as described (Gurevich et al. (1995), supra). NcoI/HindIII 1404-base pair open reading frame was then subdloned into appropriately digested Escherichia coliexpression vector pTrcHisB (Invitrogen). All β-arrestin species were expressed in the in vitro translation system and tested in the direct binding assay (Gurevich et al. (1995), supra), overexpressed in E. coli, purified to apparent homogeneity (Gray-Keller et al. (1997) Biochemistry 36:7058-7063), and characterized in the agonist affinity shift assay (Gurevich et al. (1997) J. Biol Chem. 272:28849-28852), essentially as described.
Direct Binding Assay—In vitro translated tritiated arrestins (50 fmol) were incubated in 50 mM Tris-HCl, pH 7.5, 0.5 mM MgCl2, 1.5 mM dithiothreitol, 50 mM potassium acetate with 7.5 pmol of the various functional forms of rhodopsin or with P-β2AR or β2AR (100 fmol/assay) in a final volume of 50 μl for 5 min at 37° C. in room light (rhodopsin) or for 60 min at 30° C. in the presence of 0.1 mM -agonist isoproterenol. The samples were immediately cooled on ice and loaded onto 2 ml Sepharose 2B columns equilibrated with 20 mM Tris-HCl, pH 7.5, 2 mM EDTA. Bound arrestin eluted with receptor-containing membranes in the void volume (between 0.5 and 1.1 ml). Nonspecific binding determined in the presence of 0.3 μg of liposomes was subtracted.

[2] = tested on: β2AR; experiment: Agonist affinity shift assay ([125I] iodopindolol), formation of high agonist affinity complex (HAC); format: binding; settings: 1 μM arrestin, FIG. 2A
Source text: Mutagenesis and Biochemical Characterization of β-Arrestins—Mutations Arg169→Glu (CGG→GAG), Gln394→Ter (CAA→TAA), and Asp383→Ter (GAT→TAG) were introduced by polymerase chain reaction in β-arrestin construct pBARR (Gurevich et al. (1995) J. Biol. Chem. 270:720-731), that was used for in vitro transcription and translation, as described (Gurevich et al. (1995), supra). NcoI/HindIII 1404-base pair open reading frame was then subdloned into appropriately digested Escherichia coliexpression vector pTrcHisB (Invitrogen). […]
Agonist Affinity ShiftAssay—P-β2AR or β2AR (10-15 fmol/assay) was incubated in 0.25 ml of 10 mM Tris-HCl, pH 7.4, 100 mM NaCl (buffer A) containing 0.1 mg/ml bovine serum albumin in the presence of 65-75 fmol of [^125I] iodopindolol (NEN Life Science Products) and the indicated concentrations of arrestins and agonists for 60 min at 22° C. […] Receptor-containing liposomes with bound radioligand were eluted with buffer A (between 0.6 and 1.5 ml), and radioactivity was quantitated in a liquid scintillation counter. Nonspecific binding was determined in the presence of 10 μM alprenolol. […]

Substance | binding to activated unphosphorylated receptor [1] | percentage of HAC formed by unphosphorylated β2AR [2] [%] | binding to activated and phosphorylated β2AR ([1]; phosphorylated β2AR (P-β2AR))
β-arrestin-(1-393): bovine β-arrestin mutant Gln394→Ter, part of the regulatory COOH terminus deleted | bind poorly | – | –
β-arrestin-(1-382): bovine β-arrestin mutant Asp383→Ter, truncated regulatory COOH terminus | significantly higher binding | 22±4 | –
β-arrestin: wild type bovine β-arrestin, comparator for the mutants | bind poorly | – | readily bind
